Source: patent US10124009B2, “Bromodomain inhibitors” (Tensha Therapeutics, Inc., priority 2014, dated 2018)

Columns and labels:
[1] = Caco-2 permeability assay; conditions: human; for recovery at 2 h, 10 μM: Caco-2; for Papp A→B at 2 h, 10 μM: Caco-2, Mean Papp, Assay Conc. 10 μM
RIN-14B = assay: Cell Titer-Glo rat insulinoma cell assay, RIN-14B; type: cell-based; conditions: cell proliferation, 168-192 h culture
Protocol: (§1) A Cell Titer-Glo assay was utilized to test the sensitivity of four rat insulinoma (RIN) cell lines, RIN-14B, RIN-m5F, RIN-m, and RIN-5, to Compound 1 and Compound 2.
(§2) Cells were seeded at 5000 cells per well in a 96-well microculture plate in a total volume of 100 μl/well and incubated for 24 hours. 100 μl of 2× testing compounds (Compound 1 or Compound 2), serially diluted 1:4 were added to each well. The concentrations tested for Compound 1 and Compound 2 were 20 μM, 5 μM, 1.25 μM, 0.313 μM, 0.0781 μM, 0.0195 μM, 0.00488 μM, 0.00122 μM, 0.000305 μM, and 0.0000763 μM. After 168-192 total hours of culture 100 μl of media was removed from each well and 50 μl of Cell Titer-Glo (Promega #G7571) was added to each well. The plate was shaken for 2 minutes and allowed to equilibrate for 10 minutes. Luminescence was measured on a Tecan GENios microplate reader. Percent inhibition of cell proliferation was calculated relative to untreated control wells. All tests were performed in triplicate or quadruplicates at each concentration level. IC50 values were calculated using Prism 6.00 curve-fitting with a four parameter-logistic equation.

RIN-m5F = assay: Cell Titer-Glo rat insulinoma cell assay, RIN-m5F; type: cell-based; conditions: cell proliferation, 168-192 h culture
Protocol: as §1, §2

RIN-m = assay: Cell Titer-Glo rat insulinoma cell assay, RIN-m; type: cell-based; conditions: cell proliferation, 168-192 h culture
Protocol: as §1, §2

RIN-5F = assay: Cell Titer-Glo rat insulinoma cell assay, RIN-5F; type: cell-based; conditions: cell proliferation, 168-192 h culture
Protocol: as §1, §2

[2] = tested on: rat insulinoma (RIN) cell lines; assay: Cell Titer-Glo rat insulinoma cell assay, all four cell lines; type: cell-based; conditions: all cell lines (RIN-14B, RIN-m5F, RIN-m, RIN-5)
Protocol: as §1, §2

BRD4(1) = BRD4(1) (Homo sapiens (Human), UniProt O60885); assay: BROMOscan binding assay BRD4(1)
Protocol: (§3) (S)-JQ (S8) was used as a positive control.
(§4) T7 phage strains displaying bromodomains were grown in parallel in 24-well blocks in an E. coli host derived from the BL21 strain. E. coli were grown to log-phase and infected with T7 phage from a frozen stock (multiplicity of infection=0.4) and incubated with shaking at 32° C. until lysis (90-150 minutes). The lysates were centrifuged (5,000×g) and filtered (0.2 μm) to remove cell debris. […] The liganded beads were blocked with excess biotin and washed with blocking buffer (SeaBlock (Pierce), 1% BSA, 0.05% Tween 20, 1 mM DTT) to remove unbound ligand and to reduce non-specific phage binding.
(§5) Test compounds were prepared as 1000× stocks in 100% DMSO and subsequently serially diluted 1:10 in monoethylene glycol (MEG) to create stocks at 100× the screening concentration (resulting stock solution is 10% DMSO/90% MEG). The compounds were then diluted directly into the assays such that the final concentration of DMSO and MEG were 0.1% and 0.9%, respectively. All reactions were performed in polystyrene 96-well plates in a final volume of 0.135 ml. […] The bromodomain concentration in the eluates was measured by qPCR.
(§6) Most Kds were determined using a compound top concentration=10,000 nM.
(§7) Binding constants (Kds) were calculated with a standard dose-response curve using the Hill equation. The Hill Slope was set to −1. Curves were fitted using a non-linear least square fit with the Levenberg-Marquardt algorithm. […] The amount of bromodomain was measured by qPCR (y-axis) and was plotted against the corresponding compound concentration in nM in log 10 scale.

BRD4(2) = BRD4(2) (Homo sapiens (Human), UniProt O60885); assay: BROMOscan binding assay BRD4(2)
Protocol: as §3, §4, §5, §6, §7

[3] = IV and oral pharmacokinetics in male Sprague-Dawley rats; type: in vivo, rat; conditions: for exposures following IV administration: IV 1 mg/kg; for Extrapolated / AUC(0-inf) / AUC(0-t) / Cmax / Tmax / half-life: rat plasma; for bioavailability / AUC(0-inf) / AUC(0-t) / Cmax / Tmax / half-life: male, Sprague-Dawley; for bioavailability: rat, plasma, PO 5 mg/kg, read-out: oral bioavailability F
Protocol: Male Sprague-Dawley (˜250-325 g) with indwelling jugular vein cannulae (JVC) were purchased and allowed to acclimate to the test facility for a minimum of 2 days. All animals were fasted overnight prior to dosing. Oral formulations were prepared by weighing the appropriate amount of the compound into formulation vial and adding the appropriate volume of DMSO (10%), Solutol HS-15 (10%), and saline (80%) (See Table 0 for compound amounts and concentrations of all formulations). Once the test compound was in the vial, DMSO was added and the vial was vortexed for 1-2 minutes and sonicated for 3 minutes. The appropriate volume of Solutol HS-15 was then added to formulation vial and the vial was vortexed for 1-2 minutes and sonicated for 2 minutes. Saline was added and the pH adjusted to about 6.8-7.4, and the vial was vortexed for 2 minutes.
Oral dosing was performed using a ball-tipped gavage needle. […] No abnormalities were observed during the course of the study. Serial samples were collected by via tail snip, or facial vein. Blood samples were collected into NaF Na2EDTA tubes and stored on wet ice until processed to plasma by centrifugation (3500 rpm for 10 minutes at 5° C.) within 30 minutes of collection. Plasma samples were transferred into matrix tubes and stored at −80° C. until transferred to analytical chemistry for analysis. The cellular fraction was discarded. Dose formulation and plasma samples were analyzed for parent drug and metabolite by Agilux Laboratories via LC/MS/MS using an RGA I assay.

Caco-2 = Caco-2 permeability assay; conditions: Assay Conc. 10 μM
in vitro = conditions: human
[4] = PO Dose (5 mg/kg) vs IV (1 mg/kg)

Row | Structure (SMILES) | recovery at 2 h, 10 μM [1] [%] | Papp A→B at 2 h, 10 μM [1] [×10⁻⁶ cm/s] | Kd (BRD4(1)) [nM] | Kd values / in vitro binding activity to BRD4(1), in words (BRD4(1)) | Kd (BRD4(2)) [nM] | Kd values / in vitro binding activity to BRD4(2), in words (BRD4(2)) | exposures following IV administration [3] | Extrapolated ([3]; IV Dose (1 mg/kg)) [%] | bioavailability [3] [%] | AUC(0-inf) ([3]; IV Dose (1 mg/kg)) [ng·h/mL] | AUC(0-t) ([3]; IV Dose (1 mg/kg)) [ng·h/mL] | Cmax ([3]; IV Dose (1 mg/kg)) [ng/mL] | Tmax ([3]; IV Dose (1 mg/kg)) [min] | half-life ([3]; IV Dose (1 mg/kg)) [min] | AUC(0-t) ([3]; PO Dose (5 mg/kg)) [ng·h/mL] | Cmax ([3]; PO Dose (5 mg/kg)) [ng/mL] | Tmax ([3]; PO Dose (5 mg/kg)) [min] | other results
1 | Cc1sc2c(c1C)C(c1ccc(Cl)cc1)=N[C@@H](CC(=O)OC(C)(C)C)c1nnc(C)n1-2 [(S)-JQ1, reference compound] | 84.6 | 35.4 |  |  |  |  |  |  |  |  |  |  |  |  |  |  |  | 
2 | Cc1sc2c(c1C)C(c1ccc(Cl)cc1)=N[C@@H](CC(=O)OC1CCC(O)CC1)c1nnc(C)n1-2 (stereo partly shown) [Compound 1] | 98.5 | 30.7 | 1.3 | low Kd values | 1.5 | low Kd values | detected | 0.41 | > 23 | 1500 | 1500 | 1490 | 4.98 | 47.9 | 2360 | 619 | 60 | IC50 (RIN-14B): 9.3 nM; IC50 (RIN-m5F): 11.3 nM; IC50 (RIN-m): 12.6 nM; IC50 (RIN-5F; Rattus norvegicus): 21.6 nM; IC50 (RIN-5F): 19.5 nM; IC50 [2]: < 40 nM; F* ([3]; PO Dose (5 mg/kg) vs IV (1 mg/kg), AUC0-last was used to calculate % F): 31.6%
3 | Cc1sc2c(c1C)C(c1ccc(Cl)cc1)=N[C@@H](CC(=O)OCC(C)O)c1nnc(C)n1-2 (stereo partly shown) [Compound 2] | 95.3 | 30.6 | 1.9 | low Kd values | 1.9 | low Kd values | detected | 4.62 | > 23 |  |  | 790 | 4.98 | 27.4 | 2720 | 820 | 60 | IC50 (RIN-14B): 26.5 nM; IC50 (RIN-m5F): 42.3 nM; IC50 (RIN-m): 41.5 nM; IC50 (RIN-5F; Rattus norvegicus): 64.5 nM; IC50 (RIN-5F): 59.9 nM; IC50 [2]: < 80 nM; F [3, 4]: 102.2%; AUC(0-inf) ([3]; PO Dose (5 mg/kg)): 3030 ng·h/mL; half-life ([3]; PO Dose (5 mg/kg)): 107 min
4 | Cc1sc2c(c1C)C(c1ccc(Cl)cc1)=N[C@@H](CC(=O)OCCO)c1nnc(C)n1-2 [Compound 3] | 88.7 | 29.8 | 1.1 | low Kd values | 1.2 | low Kd values |  |  |  |  |  |  |  |  |  |  |  | 
5 | Cc1sc2c(c1C)C(c1ccc(Cl)cc1)=N[C@@H](CC(=O)OCCCO)c1nnc(C)n1-2 [Compound 4] | 99.4 | 35.6 | 1.1 | low Kd values | 1.3 | low Kd values | detected | 0.28 | > 23 | 784 | 782 | 1130 | 4.98 | 48.4 | 813 | 480 | 30 | F [3, 4]: 23.4%; AUC(0-inf) ([3]; PO Dose (5 mg/kg)): 918 ng·h/mL; half-life ([3]; PO Dose (5 mg/kg)): 110 min
6 | Cc1sc2c(c1C)C(c1ccc(Cl)cc1)=N[C@@H](CC(=O)OCCCCCCO)c1nnc(C)n1-2 [Compound 5] | 88.7 | 39.9 |  | low Kd values | 0.4 | low Kd values | detected | 0.75 |  | 516 | 512 | 1070 | 4.98 | 18.1 | 12.1 | 12.2 | 30 | 
7 | Cc1sc2c(c1C)C(c1ccc(Cl)cc1)=N[C@@H](CC(=O)OCC(O)CO)c1nnc(C)n1-2 (stereo partly shown) [Compound 6] | 90.8 | 4.74 |  |  |  |  |  |  |  |  |  |  |  |  |  |  |  | 
8 | Cc1sc2c(c1C)C(c1ccc(Cl)cc1)=N[C@@H](CC(=O)OC/C(Br)=C(\Br)CO)c1nnc(C)n1-2 [Compound 7] | 76.9 | 31.3 | 1.5 | low Kd values | 2.1 | low Kd values |  |  |  |  |  |  |  |  |  |  |  | 
9 | CNC(=C[N+](=O)[O-])NCCSCc1ccc(CN(C)C)o1 [Ranitidine, reference compound] |  |  |  |  |  |  |  |  |  |  |  |  |  |  |  |  |  | Mean % recovery (Caco-2): 97.8%; Mean Papp, A-B (Caco-2; 2 hours): 0.170 10^−6 cm/s
10 | CC(=O)CC(c1ccccc1)c1c(O)c2ccccc2oc1=O (stereo not shown) [Warfarin] |  |  |  |  |  |  |  |  |  |  |  |  |  |  |  |  |  | recovery at 2 h, 10 μM (in vitro; Caco-2): 99.9%; Papp A→B at 2 h, 10 μM (in vitro; Caco-2, Mean Papp, A-B): 38.8 ×10⁻⁶ cm/s
